Earlier results in patent US20070197568A1 (priority 2005, published 2007).

Settings: animals, at doses that inhibit tumor growth

**Q.** Which “toxicity to the animal” value does the source give for `O=C(CCCCCCC(=O)Nc1ccccc1)NO` [SAHA, N-Hydroxy-N′-phenyl octanediamide] here?
**A.** no toxicity
